Measured values reported in US10654818B2, “Furane derivatives as inhibitors of ATAD2” (BAYER PHARMA AKTIENGESELLSCHAFT, priority 2015, dated 2020).

Experiments:
MCF7 breast cancer cells = test: Cell proliferation assay (alamarBlue), MCF7; format: cell-based; details: Homo sapiens, 72 h incubation, GI50 = half-maximal growth inhibition
Description: (§1) The effect of ATAD2 inhibitory compounds on cancer cell proliferation might be measured as below. For example; MCF7 breast cancer cells might be seeded into 96-well microtiter plates at 2000 cells/well in 90 μl cell culture media (RPMI 1640, 10% FCS, 2 mM L-Glutamine, 10 μg/ml human Insulin, […]) and incubated for 24 h at 37° C. and 5% CO2. Note, the culturing conditions might vary from cell line to cell line depending on their standard culturing conditions. Compounds might be then delivered to the microtiter assay plates and, following a 72 h long incubation period at 37° C. and 5% CO2, the viability of the cells might be measured with addition of alamarBlue® (Invitrogen) to the medium in Victor X3 Multilabel Plate Reader (Perkin Elmer).
(§2) GI50 means half-maximal growth inhibition.

NCl-H526 lung cancer = test: Cell proliferation assay (alamarBlue), NCl-H526; format: cell-based; details: GI50 = half-maximal growth inhibition
Description: as §1, §2

[1] = biological target: T1, recombinant, N-terminally GST-tagged ATAD2 bromodomain amino acids 981-1108 (Homo sapiens, UniProt Q6PL18); test: TR-FRET assay: disruption of the interaction between ATAD2 and acetylated Histone H4 (Ac-H4) peptide; format: binding; details: inhibition of ATAD2/Ac-H4 complex formation; 10 nM ATAD2, 50 nM Ac-H4 peptide
T1 construct: ATAD2 bromodomain amino acids 981-1108; made in house; host or cells: E. coli
T1 sequence (Q6PL18 981-1108): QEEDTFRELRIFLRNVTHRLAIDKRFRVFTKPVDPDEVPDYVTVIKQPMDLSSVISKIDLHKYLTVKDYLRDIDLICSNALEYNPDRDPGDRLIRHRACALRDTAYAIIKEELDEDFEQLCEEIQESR
Outline: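 Read-out is the 665/622 nm TR-FRET ratio after 337 nm excitation, normalized to DMSO and no-protein controls, with IC50 fitted by 4-parameter logistic. Compounds (11 concentrations, 0.1 nM-20 μM) pre-equilibrated 10 min with 10 nM ATAD2, then 1 h at 22 °C with 50 nM Ac-H4 peptide.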

SMILES | GI50 (MCF7 breast cancer cells) [µM] | GI50 (NCl-H526 lung cancer) [µM] | IC50 [1] [µM]
Cc1ccc([C@@H](C)NCc2ccc(-c3ccc(Cl)c(C(=O)N[C@@H](CN[C@H]4CC[C@@H](N)CC4)Cc4ccc(C#N)cc4)c3)o2)cc1 (single isomer, unassigned) [Example 71] | 3.18 | 1.25 | 0.107
Cc1ccc([C@@H](C)NCc2ccc(-c3ccc(Cl)c(C(=O)N[C@@H](CCNCC4CCN(C)CC4)Cc4ccc(C#N)cc4)c3)o2)cc1 [Example 33, 2-chloro-N-[(2R)-1-(4-cyanophenyl)-4-{[(1-methylpiperidin-4-yl)methyl]amino}butan-2-yl]-5-[5-({[(1R)-1-(4-methylphenyl)ethyl]amino}methyl)-2-furyl]benzamide] | 1.42 | 1.25 | 0.184
COc1cc(Cl)c(C(=O)N[C@@H](CO)Cc2ccc(C#N)cc2)cc1-c1ccc(CN[C@H](C)c2ccc(C)cc2)o1 [Example 81, 2-chloro-N-[(2R)-1-(4-cyanophenyl)-3-hydroxypropan-2-yl]-4-methoxy-5-[5-({[(1R)-1-(4-methylphenyl)ethyl]amino}methyl)-2-furyl]benzamide] | 10.4 | 10.2 | 0.301
COc1cc(Cl)c(C(=O)N[C@@H](CN[C@H]2CC[C@@H](N)CC2)Cc2ccc(C#N)cc2)cc1-c1ccc(CN[C@H](C)c2ccc(C)cc2)o1 [Example 86, N-[(2R)-1-[(4-aminocyclohexyl)amino]-3-(4-cyanophenyl)propan-2-yl]-2-chloro-4-methoxy-5-[5-({[(1R)-1-(4-methylphenyl)ethyl]amino}methyl)-2-furyl]benzamide] | 3.2 | 2.4 | 0.166
Cc1ccc([C@@H](C)NCc2ccc(-c3ccc(Cl)c(C(=O)N[C@@H](CCN4CC5(CN(C)C5)C4)Cc4ccc(C#N)cc4)c3)o2)cc1 [Example 36, 2-chloro-N-[(2R)-1-(4-cyanophenyl)-4-(6-methyl-2,6-diazaspiro[3.3]hept-2-yl)butan-2-yl]-5-[5-({[(1R)-1-(4-methylphenyl)ethyl]amino}methyl)-2-furyl]benzamide] | 1.28 | 1.29 | 0.186
Cc1ccc([C@@H](C)NCc2ccc(-c3cc(C(=O)N[C@@H](CO)Cc4ccc(C#N)cc4)c(Cl)cc3O)o2)cc1 [Example 90, 2-chloro-N-[(2R)-1-(4-cyanophenyl)-3-hydroxypropan-2-yl]-4-hydroxy-5-[5-({[(1R)-1-(4-methylphenyl)ethyl]amino}methyl)-2-furyl]benzamide] | 10.8 | 19.1 | 0.367
Cc1ccc([C@@H](C)NCc2ccc(-c3ccc(Cl)c(C(=O)N[C@@H](C)Cc4ccc(C#N)cc4)c3)o2)cc1 [Example 42, 2-chloro-N-[(2S)-1-(4-cyanophenyl)propan-2-yl]-5-[5-({[(1R)-1-(4-methylphenyl)ethyl]amino}methyl)-2-furyl]benzamide] | 11.9 | > 30 | 1.1
Cc1ccc([C@@H](C)NCc2ccc(-c3ccc(Cl)c(C(=O)N[C@@H](CNC[C@@H]4[C@H]5CNC[C@@H]45)Cc4ccc(C#N)cc4)c3)o2)cc1 [Example 66, N-[(2R)-1-{[(1R,5S,6r)-3-azabicyclo[3.1.0]hex-6-ylmethyl]amino}-3-(4-cyanophenyl)propan-2-yl]-2-chloro-5-[5-({[(1R)-1-(4-methylphenyl)ethyl]amino}methyl)-2-furyl]benzamide] | 3.76 | 5.1 | 0.245
Cc1ccc([C@@H](C)NCc2ccc(-c3ccc(Cl)c(C(=O)N[C@@H](CN)Cc4ccc(C#N)cc4)c3)o2)cc1 [Example 53, N-[(2R)-1-amino-3-(4-cyanophenyl)propan-2-yl]-2-chloro-5-[5-({[(1R)-1-(4-methylphenyl)ethyl]amino}methyl)-2-furyl]benzamide] | 2.51 | 3.6 | 0.273
Cc1ccc([C@@H](C)NCc2ccc(-c3ccc(Cl)c(C(=O)N[C@@H](CO)Cc4ccc(C#N)cc4)c3)o2)cc1 [Example 4, 2-chloro-N-[(2R)-1-(4-cyanophenyl)-3-hydroxypropan-2-yl]-5-[5-({[(1R)-1-(4-methylphenyl)ethyl]amino}methyl)-2-furyl]benzamide] | 11.5 | 15.4 | 0.393
